# What was measured:
# [1] = system: iniA; assay: Northern blot of iniA induction after antibiotic treatment; assay type: cell-based; conditions: total RNA from M. tuberculosis cultured with or without antibiotics; FIG. 1
# Experimental: Autoradiographs of a Northern blot containing RNA from M. tuberculosis cultures treated either with no antibiotics; isoniazid 0.01 μg/ml; isoniazid 0.1 μg/ml; isoniazid 1 μg/ml; ethambutol 5 μg/ml; streptomycin 5 μg/ml; and rifampin 5 μg/ml. The blots were hybridized first with an iniA DNA probe (top) to examine iniA induction; the blot was then stripped and re-hybridized with a 16S probe (bottom) to confirm equal RNA loading.
# Mycobacterial cultures were grown to mid log phase in Middlebrook 7H9 media supplemented with OADC, 0.05% Tween 80, and cyclohexamide (18) (for some experiments antibiotics were added for the last 18 hours), pelleted, resuspended in chloroform/methanol 3:1, and vortexed for 60 seconds or until the formation of an interface. RNA was extracted with five volumes of Triazole (Life Technologies, Gaithersburg, Md.), the aqueous layer precipitated in isopropanol, redissolved in 4M GTC and extracted a second time with Triazole.
# Five μg of each RNA sample were analyzed by northern blot with Northern Max kits (Ambion, Austin, Tex.) in a 1% denaturing agarose gel, probed with inserts of differentially expressed plasmids labeled by random priming with [α^32P] dCTP, and visualized by autoradiography.
# [2] = system: iniB promoter; assay type: cell-based, BCG; conditions: for iniB promoter induction: 213 base pair iniB promoter in lacz reporter construct; for Induction of the iniB promoter at 24 hours: BCG containing the iniB/lacZ construct; for Induction of the iniB promoter at 24 hours / iniA gene induction / effect on iniA transcription: FIG. 4; for iniA gene induction / effect on iniA transcription: amino acids
# [3] = system: iniA; assay type: cell-based, M. tuberculosis strain Erdman; conditions: RT PCR; isoniazid added for the last 18 hours; FIG. 2A
# [4] = system: asd; assay type: cell-based, M. tuberculosis strain Erdman; conditions: RT PCR; isoniazid added for the last 18 hours; FIG. 2A
smiles,measurement,setting,value
[H]/N=C(/N)N[C@H]1[C@H](O)[C@@H](O)[C@H](O[C@@H]2O[C@@H](C)[C@](O)(C=O)[C@H]2O[C@@H]2O[C@@H](CO)[C@H](O)[C@@H](O)[C@@H]2NC)[C@@H](N/C(N)=N\[H])[C@@H]1O [streptomycin],iniA induction (Northern blot),[1],not
N[C@@H]1CON=C1O [cycloserine],iniB promoter induction,[2]; FIG. 3,induced
NNC(=O)c1ccncc1 [isoniazid],iniA induction (Northern blot),[1],strongly induced
same,iniA induction by densitometry,[3],70 fold
same,asd repression,[4],17 fold
same,iniB promoter induction,[2]; FIG. 3,induced
NCC(=O)O [gylcine],Induction of the iniB promoter at 24 hours,[2],Modest induction
CC[C@@H](CO)NCCN[C@@H](CC)CO [ethambutol],iniA induction (Northern blot),[1],strongly induced
same,iniB promoter induction,[2]; FIG. 3,induced
C[C@@H](O)[C@H](N)C(=O)O [L-threonine],Induction of the iniB promoter at 24 hours,[2],did not cause induction
same,iniA gene induction / effect on iniA transcription,[2],minimal effect
C[C@H](O)[C@@H](N)C(=O)O [D-threonine],Induction of the iniB promoter at 24 hours,[2],comparable to that of isoniazid and Unisyn
same,iniA gene induction / effect on iniA transcription,[2],induced
CO[C@H]1/C=C/O[C@@]2(C)Oc3c(C)c(O)c4c(O)c(c(/C=N/N5CCN(C)CC5)c(O)c4c3C2=O)NC(=O)/C(C)=C\C=C\[C@H](C)[C@H](O)[C@@H](C)[C@@H](O)[C@@H](C)[C@H](OC(C)=O)[C@@H]1C [rifampin],iniA induction (Northern blot),[1],not
same,Reversal of iniB promoter induction by co-administration,"[2]; co-administration with inducing antibiotic, FIG. 3",can be reversed

# Reference: patent US6821769B2, “IniB, iniA and iniC genes of mycobacteria and methods of use” (priority 1998, dated 2004)
